Where two headings read alike, the source gives them in different places. Each block holds one compound with its values, some of them ahead of it.
How the values were obtained:
[1] = test system: acetylated α-tubulin (AcTub) levels in QBI293 cells; parameters: method as in PMID 26980057, PMID 33411523; conditions: activity reported in previous studies; cited from earlier work
[2] = test system: total tubulin levels in HeLa cells; parameters: method as in earlier work; conditions: 16 h incubation, ref 13 (Yang et al.); cited from earlier work
[3] = test system: acetylated α-tubulin (AcTub) levels in QBI293 cells; test: QBI293 cell assay of MT stabilization: acetylated α-tubulin ELISA; type: cell-based
Procedure, shortened: (§1)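 AcTub and α-Tub were quantified by ELISA in whole-cell extracts normalized by BCA protein and expressed relative to vehicle. AcTub changes were also scaled to a 100 nM reference stabilizer control.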

[4] = Plasma pharmacokinetics in CD-1 mice; type: in vivo, mouse; conditions: male, mouse
Protocol: Studies to determine the pharmacokinetic properties of compounds 53 and 60 were conducted at Touchstone Biosciences (Plymouth Meeting, PA). For the determination of plasma pharmacokinetics, three male CD-1 mice (2–3 months of age) were injected i.v. (tail vein) with test compound at a dose of 5 mg/kg in a solution of 10% DMSO, 40% polyethylene glycol, and 50% water, and another three male CD-1 mice received oral gavage dosing of 60 formulated as above at a dose of 20 mg/kg. Blood samples were collected from the saphenous or submandibular veins at multiple time points after dosing and collected in Greiner MiniCollect K2EDTA tubes. Compound levels in plasma were determined by LC-MS/MS, using protocols similar to those previously described.[16],[22]

[5] = Brain-to-plasma ratio in mice; type: in vivo; conditions: mouse, ip, 1 h post-administration, i.p. 1.5 mg/kg, read-out: brain-to-plasma ratio (B/P)
[6] = test system: de-tyrosinated α-tubulin (GluTub) in brain of WT mice; test: Brain PD: Glu-tubulin in brain tissue after compound treatment; type: in vivo, mouse; conditions: WT CD-1 mice, 1 mg/kg i.p. once daily for two consecutive days
Protocol: Finally, to evaluate target engagement in the CNS, PD studies were conducted to determine compound-dependent elevations in the stable MT marker, de-tyrosinated α-tubulin (GluTub), in brain homogenates from compound-treated WT mice.
All animal protocols were approved by the University of Pennsylvania Institutional Animal Care and Use Committee (IACUC). […] Compounds were diluted from 20 or 40 mM DMSO stock solutions into 30% Kolliphor EL (Sigma-Aldrich) phosphate-buffered saline, pH 7.4. After 4 h following the second injection, mice were euthanized and cortices and hippocampi were isolated from each brain and placed in 0.2 mL of ice-cold radioimmunoprecipitation assay (RIPA) buffer (50 mM Tris, 150 mM NaCl, 5 mM EDTA, 0.5% sodium deoxycholate, 1% NP-40, 0.1% sodium dodecyl sulfate (SDS), pH 8.0) containing protease inhibitor (PI) cocktail (Sigma-Aldrich), 1 mM phenylmethylsulfonyl fluoride (PMSF) (Sigma-Aldrich), and 3 μM trichostatin A (TSA) (Sigma-Aldrich). The brain samples were homogenized with a handheld battery-operated mixer and subsequently sonicated. After centrifugation at 100,000g for 30 min at 4 °C, supernatant samples were transferred to a new tube and the pellets were resuspended in 0.15 mL of RIPA buffer and again homogenized, sonicated, and centrifuged. The supernatant from the second centrifugation was pooled with that from the first. The combined supernatant samples were assessed for protein concentration using a BCA assay (Thermo Fisher Scientific), and equal protein amounts from each brain sample underwent separation by 10% sodium dodecyl sulfate polyacrylamide gel electrophoresis (SDS-PAGE) followed by transfer onto nitrocellulose membranes essentially as previously described.[11] […] Incubation with infrared dye-conjugated secondary antibodies and subsequent imaging and quantification of the blots on the Odyssey imaging system were as described.[11]

[7] = test system: total α-tubulin (α-Tub) levels in QBI293 cells; test: QBI293 cell assay: total α-tubulin ELISA; type: cell-based
Procedure, shortened: as §1

[8] = Resazurin cell viability assay, QBI293; type: cell-based; conditions: human, QBI293 cells, three biological replicates, read-out: QBI293 CC50 ± SD
Protocol: (§2) Cell Culture. QBI293 and HeLa cells were cultured in DMEM supplemented with 10% heat-
(§3) inactivated FBS and 1% penicillin-streptomycin. Cells were grown in T175 cell culture flasks maintained
(§4) at 37 ℃ in 5% CO2 and sub-c ultured when at 60-8 0% cell confluence.
(§5) Resazurin Cell Viability Assay. Cytotoxicity in QBI293 and HeLa cells was measured using the
(§6) resazurin cell viability assay.1 Test compounds were serially diluted in DMSO and added to 96-well
(§7) polystyrene assay plates to give final assay concentrations ranging from 100 nM to 4000 nM (1 µL; 1%
(§8) total DMSO). Fresh medium was added to the assay plate (49 µL/well). QBI293 or HeLa cells were
(§9) cells/well. Assay plates were incubated at 37 °C and 5% CO2 for 48 h, followed by addition of 20 µL 0.5
(§10) mM resazurin (Alfa Aesar, Cat. B21187) in PBS to each well. Assay plates were incubated in the dark for
(§11) (1 picture or pasted object on this page, not shown here)
(§12) 4 h at 37 °C. Fluorescence was measured at 531 nm and 595 nm excitation and emission wavelengths,
(§13) respectively, using a 2104 EnVision® multilabel plate reader. The viability of each well was normalized to
(§14) positive and negative controls in each assay plate. Dose-response curves were generated and CC50 values
(§15) calculated with GraphPad Prism, version 9.3 (San Diego, CA) using a sigmoidal four parameter logistic
(§16) curve. The means ± standard deviations from three biological replicates are shown.
(§17) (1) O'Brien, J.; Wilson, I.; Orton, T.; Pognan, F. Investigation of the Alamar Blue (resazurin) fluorescent
(§18) dye for the assessment of mammalian cell cytotoxicity. Eur. J. Biochem. 2000, 267 (17), 5421-5426.

[9] = Resazurin cell viability assay, HeLa; type: cell-based; conditions: human, HeLa cells, three biological replicates, read-out: HeLa CC50 ± SD
Protocol: as §2, §3, §4, §5, §6, §7, §8, §9, §10, §11, §12, §13, §14, §15, §16, §17, §18

Structure (SMILES): C[C@H](Nc1c(-c2c(F)cc(F)cc2F)c(Cl)nc2ncnn12)C(F)(F)F [Compound 2]
Class (cellular phenotype) [1]: I
total tubulin levels [2]: reduction in total tubulin levels

Vd at 24 h ([4]; iv, i.v. 5 mg/kg): 4.8 L/kg
clearance at 24 h ([4]; iv, i.v. 5 mg/kg): 8.2 mL/min/kg
half-life ([4]; iv, i.v. 5 mg/kg, read-out: half-life (T1/2)): > 6 h
half-life at 24 h ([4]; iv, i.v. 5 mg/kg, read-out: half-life (T1/2) (converted)): 6.8 h
bioavailability ([4]; oral, 5 mg/kg i.v. and 20 mg/kg p.o., read-out: oral bioavailability (F)): > 50%
bioavailability at 24 h ([4]; po, 5 mg/kg i.v. and 20 mg/kg p.o., read-out: oral bioavailability (F)): 56%
Kp at 1 h [5]: ~0.5
Structure (SMILES): C[C@@H](Nc1c(-c2c(F)cc(C#CCCN(C)C)cc2F)c(Cl)nc2ncnn12)C(C)(C)C [Compound 60, (R)-5-Chloro-6-(4-(4-(dimethylamino)but-1-yn-1-yl)-2,6-difluorophenyl)-N-(3,3-dimethylbutan-2-yl)-[1,2,4]triazolo[1,5-a]pyrimidin-7-amine]
AcTub (1 uM - normalized) ([3]; 1 uM compound, normalized): 1.75
AcTub (10 uM - normalized) ([3]; 10 uM compound, normalized): 1.28
fold induction at 1 µM ([3]; 4 h, 1 uM compound, read-out: AcTub (1uM)): 9.5
fold induction at 10 µM ([3]; 4 h, 10 uM compound, read-out: AcTub (10 uM)): 6.94
AcTub 1 μM, fold-change compared to positive control compound 5 (100 nM) (in parentheses) ([3]; 4 h incubation, 1 μM): 1.75 fold-change
fold induction at 1 µM ([3]; 4 h incubation, 1 μM, read-out: AcTub 1 μM, fold-change compared to vehicle (DMSO)-treated cells): 9.5 ± 0.34
AcTub 10 μM, fold-change compared to positive control compound 5 (100 nM) (in parentheses) ([3]; 4 h incubation, 10 μM): 1.28 fold-change
fold induction at 10 µM ([3]; 4 h incubation, 10 μM, read-out: AcTub 10 μM, fold-change compared to vehicle (DMSO)-treated cells): 6.94 ± 0.22
brain GluTub (GluTub-to-total α-Tub ratio) relative to vehicle-treated mice [6]: significant elevations in brain GluTub
fold induction at 1 µM ([7]; 4 h, 1 uM compound, read-out: AlfaTub (1uM)): 0.94
fold induction at 10 µM ([7]; 4 h, 10 uM compound, read-out: AlfaTub (10 uM)): 0.98
fold induction at 1 µM ([7]; 4 h incubation, 1 μM, read-out: α-Tub 1 μM, fold-change compared to vehicle (DMSO)-treated cells): 0.94 ± 0.01
fold induction at 10 µM ([7]; 4 h incubation, 10 μM, read-out: α-Tub 10 μM, fold-change compared to vehicle (DMSO)-treated cells): 0.98 ± 0.01

Structure (SMILES): C[C@@H](Nc1c(-c2c(F)cc(C#N)cc2F)c(Cl)nc2ncnn12)C(C)(C)C [Compound 68]
CC50 at 48 h [8]: 30.7 ± 5.2 nM
Class (cellular phenotype) [1]: I
CC50 at 48 h [9]: 41.7 ± 3 nM
brain GluTub (GluTub-to-total α-Tub ratio) relative to vehicle-treated mice [6]: significant elevations in brain GluTub

Source: article PMC9841533, “Microtubule-Stabilizing 1,2,4-Triazolo[1,5-a]pyrimidines as Candidate Therapeutics for Neurodegenerative Disease: Matched Molecular Pair Analyses and Computational Studies Reveal New Structure–Activity Insights” (Journal of Medicinal Chemistry, 2022)
